Publication PMC5516890 (Bioconjugate chemistry, 2016)
Entries after “also recorded” stand apart in the source; their conditions may differ.

System: NOD-SCID mice bearing isogenic PSMA^+ PC3 PIP and PSMA^− PC3 flu tumors
Experiment: Biodistribution in tumor-bearing mice
Settings: for PSMA^+ PIP tumor uptake: PSMA+ PC3 PIP xenograft; for PSMA^− flu tumor uptake: PSMA− PC3 flu xenograft
[1] = 30 min postinjection, tail vein, ± SD, n = 3–4
[2] = 60 min postinjection, tail vein, ± SD, n = 3–4
[3] = 120 min postinjection, tail vein, ± SD, n = 3–4
[4] = 240 min postinjection, tail vein, ± SD, n = 3–4

For `O=C(O)CCC(NC(=O)NC(CCCCNC(=O)CCc1cn(CC[18F])nn1)C(=O)O)C(=O)O` (stereo not drawn) [[^18F]YC-88, 2-[3-(1-carboxy-5-{3-[1-(2-[^18F]fluoroethyl)-1H-1,2,3-triazol-yl]propanamido}pentyl)ureido]-pentanedioic acid], the “difference in PSMA^+ PC3 PIP tumor uptake between [^18F]YC-88 and [^18F]DCFPyL” value (30 min, P > 0.05) was “not statistically significant”, the “salivary gland uptake compared to [^18F]DCFPyL” value (30 min and 1 h postinjection) was “significantly less; also recorded: significantly lower” and the PIP/flu uptake ratio (30 min postinjection) was 70. The “PIP/kidney uptake ratio (tumor-to-kidney)” value (“PIP/kidney uptake ratio” below) (30 min postinjection) was 0.9, the “bladder (empty) uptake” value [1] was 17.90 ± 14.18 % ID/g and the blood uptake [1] was 1.02 ± 0.43 % ID/g. The bone uptake [1] was 0.40 ± 0.16 % ID/g, the fat uptake [1] was 0.33 ± 0.08 % ID/g and the heart uptake [1] was 0.36 ± 0.18 % ID/g. The kidney uptake [1] was 44.08 ± 12.52 % ID/g, the large intestine uptake [1] was 0.87 ± 0.85 % ID/g and the liver uptake [1] was 1.70 ± 0.21 % ID/g. For the same molecule, the lung uptake [1] was 1.09 ± 0.31 % ID/g, the muscle uptake [1] was 0.22 ± 0.07 % ID/g and the pancreas uptake [1] was 0.44 ± 0.13 % ID/g. For the same molecule, the salivary gland uptake [1] was 0.85 ± 0.39 % ID/g, the small intestine uptake [1] was 0.37 ± 0.11 % ID/g and the spleen uptake [1] was 1.67 ± 0.46 % ID/g. The stomach uptake [1] was 0.41 ± 0.14 % ID/g, the PIP/flu uptake ratio (60 min postinjection) was 170 and the “PIP/kidney uptake ratio” value (60 min postinjection) was 2.4. For the same molecule, the “bladder (empty) uptake” value [2] was 7.78 ± 4.15 % ID/g, the blood uptake [2] was 0.29 ± 0.08 % ID/g and the bone uptake [2] was 0.16 ± 0.04 % ID/g. It also gave a fat uptake [2] of 0.31 ± 0.18 % ID/g, a heart uptake [2] of 0.18 ± 0.06 % ID/g and a kidney uptake [2] of 20.08 ± 8.09 % ID/g. For the same molecule, the large intestine uptake [2] was 0.27 ± 0.14 % ID/g, the liver uptake [2] was 1.73 ± 0.14 % ID/g and the lung uptake [2] was 0.49 ± 0.24 % ID/g. For the same molecule, the muscle uptake [2] was 0.11 ± 0.06 % ID/g, the pancreas uptake [2] was 0.16 ± 0.06 % ID/g and the salivary gland uptake [2] was 0.31 ± 0.07 % ID/g. For the same molecule, the small intestine uptake [2] was 0.23 ± 0.04 % ID/g, the spleen uptake [2] was 0.69 ± 0.23 % ID/g and the stomach uptake [2] was 0.34 ± 0.20 % ID/g. For the same molecule, the PIP/flu uptake ratio (120 min postinjection) was 243, the “PIP/kidney uptake ratio” value (120 min postinjection) was 4 and the “bladder (empty) uptake” value [3] was 4.33 ± 2.64 % ID/g. For the same molecule, the blood uptake [3] was 0.28 ± 0.23 % ID/g, the bone uptake [3] was 0.37 ± 0.36 % ID/g and the fat uptake [3] was 0.17 ± 0.10 % ID/g. The heart uptake [3] was 0.07 ± 0.02 % ID/g, the kidney uptake [3] was 10.20 ± 2.76 % ID/g and the large intestine uptake [3] was 0.31 ± 0.13 % ID/g. It also gave a liver uptake [3] of 1.74 ± 0.23 % ID/g, a lung uptake [3] of 0.22 ± 0.10 % ID/g and a muscle uptake [3] of 0.10 ± 0.03 % ID/g. For the same molecule, the pancreas uptake [3] was 0.11 ± 0.06 % ID/g, the salivary gland uptake [3] was 0.25 ± 0.07 % ID/g and the small intestine uptake [3] was 0.18 ± 0.07 % ID/g. For the same molecule, the spleen uptake [3] was 0.29 ± 0.16 % ID/g, the stomach uptake [3] was 0.12 ± 0.07 % ID/g and the PIP/flu uptake ratio (240 min postinjection) was 368. The “PIP/kidney uptake ratio” value (240 min postinjection) was 6.7, the “bladder (empty) uptake” value [4] was 1.22 ± 0.89 % ID/g and the blood uptake [4] was 0.12 ± 0.04 % ID/g. For the same molecule, the bone uptake [4] was 0.11 ± 0.03 % ID/g, the fat uptake [4] was 0.10 ± 0.04 % ID/g and the heart uptake [4] was 0.04 ± 0.01 % ID/g. For the same molecule, the kidney uptake [4] was 3.84 ± 0.29 % ID/g, the large intestine uptake [4] was 0.23 ± 0.09 % ID/g and the liver uptake [4] was 1.45 ± 0.14 % ID/g. It also gave a lung uptake [4] of 0.13 ± 0.02 % ID/g, a muscle uptake [4] of 0.06 ± 0.03 % ID/g and a pancreas uptake [4] of 0.07 ± 0.02 % ID/g. It also gave a salivary gland uptake [4] of 0.14 ± 0.02 % ID/g, a small intestine uptake [4] of 0.14 ± 0.03 % ID/g and a spleen uptake [4] of 0.15 ± 0.05 % ID/g. For the same molecule, the stomach uptake [4] was 0.06 ± 0.02 % ID/g, the “PSMA^+ PIP tumor uptake” value [1] was 40.31 ± 5.13 % ID/g and the “PSMA^+ PIP tumor uptake” value [2] was 47.58 ± 5.19 % ID/g. The “PSMA^+ PIP tumor uptake” value [3] was 41.29 ± 4.22 % ID/g, the “PSMA^+ PIP tumor uptake” value [4] was 25.74 ± 7.33 % ID/g and the “PSMA^− flu tumor uptake” value [1] was 0.58 ± 0.23 % ID/g. The “PSMA^− flu tumor uptake” value [2] was 0.28 ± 0.13 % ID/g, the “PSMA^− flu tumor uptake” value [3] was 0.17 ± 0.03 % ID/g and the “PSMA^− flu tumor uptake” value [4] was 0.07 ± 0.01 % ID/g. For the same molecule, the “kidney, liver, and spleen uptake compared to [^18F]DCFPyL” value (all time points, two-tailed Student's t test) was “significantly lower”, the “difference in PSMA^− PC3 flu tumor uptake between the two radiotracers” value (any time) was “no significant difference” and the bone uptake (at all time points) was under 1 % ID/g.
